Columns and labels:
lipoamide = compound: NC(=O)CCCCC1CCSS1 [lipoamide]; assay: thermal stability z-score vs DMSO; higher = more thermally stabilized by treatment; settings: HeLa, lipoamide concentration 100 µM
Experimental: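 Cellular thermal proteome profiling in HeLa cells. Cells were treated with 100 µM lipoamide for 1 h, with or without 1 mM arsenate for a further 1 h, then heated to ten temperatures (37-66.3 °C), and soluble protein was quantified by TMT mass spectrometry relative to 0.1% DMSO controls. The thermal stability score (sum of log2 fold changes minus the abundance score) was transformed to a z-score; mean of n = 3 experiments.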

potassium arsenate = compound: O=[As]([O-])(O)O.[K+] [potassium arsenate]; assay: as above; settings: HeLa; arsenate concentration 1 mM
Experimental: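 Cellular thermal proteome profiling in HeLa cells treated with 1 mM arsenate for 1 h (DMSO pretreatment), heated to ten temperatures (37-66.3 °C). Soluble protein was quantified by TMT mass spectrometry relative to DMSO controls; the thermal stability score was transformed to a z-score; mean of n = 3 experiments.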

[1] = arsenate co-treatment: 1 mM arsenate 1 h
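Further: each temperature applied for 3 min, abundance score taken as mean log2 fold change at the two lowest temperatures, z-score obtained by mean subtraction and division by SD.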

UniProt P48444, sequence (P48444 whole entry): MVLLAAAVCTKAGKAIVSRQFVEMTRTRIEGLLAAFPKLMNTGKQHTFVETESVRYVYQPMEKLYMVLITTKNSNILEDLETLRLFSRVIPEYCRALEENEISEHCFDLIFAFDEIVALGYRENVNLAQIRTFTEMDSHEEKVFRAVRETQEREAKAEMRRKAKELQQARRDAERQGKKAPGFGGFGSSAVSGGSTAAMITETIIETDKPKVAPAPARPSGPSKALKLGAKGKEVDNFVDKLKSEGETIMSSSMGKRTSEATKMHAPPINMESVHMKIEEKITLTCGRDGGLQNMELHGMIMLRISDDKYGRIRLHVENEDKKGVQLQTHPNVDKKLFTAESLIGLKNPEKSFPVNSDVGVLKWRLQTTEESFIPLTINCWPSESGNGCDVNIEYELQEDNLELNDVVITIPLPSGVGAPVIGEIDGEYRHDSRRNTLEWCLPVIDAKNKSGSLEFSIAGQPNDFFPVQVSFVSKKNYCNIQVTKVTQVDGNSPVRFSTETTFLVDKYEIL
UniProt Q6UXV4, sequence (Q6UXV4 whole entry): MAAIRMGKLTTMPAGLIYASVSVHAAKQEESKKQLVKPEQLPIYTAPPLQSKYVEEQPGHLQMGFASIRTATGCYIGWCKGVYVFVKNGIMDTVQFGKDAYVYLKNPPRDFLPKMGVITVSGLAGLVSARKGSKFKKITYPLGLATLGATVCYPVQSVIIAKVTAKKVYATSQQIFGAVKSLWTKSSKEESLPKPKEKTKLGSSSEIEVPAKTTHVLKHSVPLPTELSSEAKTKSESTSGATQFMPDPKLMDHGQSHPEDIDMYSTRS
UniProt Q3SXY8, sequence (Q3SXY8 whole entry): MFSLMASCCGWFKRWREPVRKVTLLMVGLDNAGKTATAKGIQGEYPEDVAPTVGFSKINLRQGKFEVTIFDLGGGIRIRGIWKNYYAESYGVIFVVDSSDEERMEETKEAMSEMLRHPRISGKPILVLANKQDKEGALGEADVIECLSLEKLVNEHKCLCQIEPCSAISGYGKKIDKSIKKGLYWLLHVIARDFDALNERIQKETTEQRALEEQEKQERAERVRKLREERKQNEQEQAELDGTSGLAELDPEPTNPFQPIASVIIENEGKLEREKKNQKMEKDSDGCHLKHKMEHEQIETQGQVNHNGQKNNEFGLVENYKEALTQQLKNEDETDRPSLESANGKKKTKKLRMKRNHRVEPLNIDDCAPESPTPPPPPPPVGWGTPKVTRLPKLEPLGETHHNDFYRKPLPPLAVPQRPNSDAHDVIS
UniProt Q9Y6D5, sequence (Q9Y6D5 whole entry): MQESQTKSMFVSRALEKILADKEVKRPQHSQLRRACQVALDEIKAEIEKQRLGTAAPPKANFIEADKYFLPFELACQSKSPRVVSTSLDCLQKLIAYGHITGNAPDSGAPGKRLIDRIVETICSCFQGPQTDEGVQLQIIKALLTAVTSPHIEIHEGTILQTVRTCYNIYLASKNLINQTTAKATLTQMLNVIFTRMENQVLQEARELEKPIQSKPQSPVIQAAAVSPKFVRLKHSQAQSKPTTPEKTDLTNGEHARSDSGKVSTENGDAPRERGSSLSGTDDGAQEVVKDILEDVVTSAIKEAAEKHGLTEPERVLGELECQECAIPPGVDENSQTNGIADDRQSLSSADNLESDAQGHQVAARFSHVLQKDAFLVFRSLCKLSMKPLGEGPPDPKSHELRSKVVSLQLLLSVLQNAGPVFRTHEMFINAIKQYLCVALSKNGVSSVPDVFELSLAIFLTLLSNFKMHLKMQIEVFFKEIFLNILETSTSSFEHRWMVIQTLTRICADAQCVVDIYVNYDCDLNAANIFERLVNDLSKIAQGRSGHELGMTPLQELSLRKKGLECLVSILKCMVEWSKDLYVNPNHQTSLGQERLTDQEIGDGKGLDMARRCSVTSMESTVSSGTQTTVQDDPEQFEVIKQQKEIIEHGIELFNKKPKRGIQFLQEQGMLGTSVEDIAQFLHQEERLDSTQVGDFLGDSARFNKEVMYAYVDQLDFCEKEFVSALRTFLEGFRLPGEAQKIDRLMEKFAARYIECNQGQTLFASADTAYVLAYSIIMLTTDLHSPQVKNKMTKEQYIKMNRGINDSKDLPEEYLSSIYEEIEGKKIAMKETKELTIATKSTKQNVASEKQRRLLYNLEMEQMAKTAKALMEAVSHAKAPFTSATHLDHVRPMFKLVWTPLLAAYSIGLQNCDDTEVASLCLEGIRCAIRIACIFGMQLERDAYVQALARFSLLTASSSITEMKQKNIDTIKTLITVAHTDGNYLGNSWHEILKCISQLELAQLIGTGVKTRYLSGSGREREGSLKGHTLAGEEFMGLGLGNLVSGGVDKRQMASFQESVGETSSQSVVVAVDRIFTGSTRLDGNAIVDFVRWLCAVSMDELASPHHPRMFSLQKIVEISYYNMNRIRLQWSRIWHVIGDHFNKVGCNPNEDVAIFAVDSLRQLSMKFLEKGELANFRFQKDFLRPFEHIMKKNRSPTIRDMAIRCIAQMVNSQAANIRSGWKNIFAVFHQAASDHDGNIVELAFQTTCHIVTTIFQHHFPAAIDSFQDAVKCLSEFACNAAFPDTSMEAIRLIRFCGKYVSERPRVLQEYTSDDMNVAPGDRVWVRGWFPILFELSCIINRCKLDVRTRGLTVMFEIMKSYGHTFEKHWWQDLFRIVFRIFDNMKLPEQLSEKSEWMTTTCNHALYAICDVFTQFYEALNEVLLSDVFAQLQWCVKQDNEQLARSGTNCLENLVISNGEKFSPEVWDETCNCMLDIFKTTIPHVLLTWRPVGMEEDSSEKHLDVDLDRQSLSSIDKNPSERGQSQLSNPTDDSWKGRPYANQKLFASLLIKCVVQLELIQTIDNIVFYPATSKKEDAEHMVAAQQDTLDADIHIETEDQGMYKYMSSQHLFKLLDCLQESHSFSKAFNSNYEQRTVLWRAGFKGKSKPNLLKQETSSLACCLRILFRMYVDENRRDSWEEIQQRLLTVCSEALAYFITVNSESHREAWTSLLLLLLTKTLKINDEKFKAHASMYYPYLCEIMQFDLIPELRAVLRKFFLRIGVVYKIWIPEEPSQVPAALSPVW
UniProt Q6ZUM4, sequence (Q6ZUM4 whole entry): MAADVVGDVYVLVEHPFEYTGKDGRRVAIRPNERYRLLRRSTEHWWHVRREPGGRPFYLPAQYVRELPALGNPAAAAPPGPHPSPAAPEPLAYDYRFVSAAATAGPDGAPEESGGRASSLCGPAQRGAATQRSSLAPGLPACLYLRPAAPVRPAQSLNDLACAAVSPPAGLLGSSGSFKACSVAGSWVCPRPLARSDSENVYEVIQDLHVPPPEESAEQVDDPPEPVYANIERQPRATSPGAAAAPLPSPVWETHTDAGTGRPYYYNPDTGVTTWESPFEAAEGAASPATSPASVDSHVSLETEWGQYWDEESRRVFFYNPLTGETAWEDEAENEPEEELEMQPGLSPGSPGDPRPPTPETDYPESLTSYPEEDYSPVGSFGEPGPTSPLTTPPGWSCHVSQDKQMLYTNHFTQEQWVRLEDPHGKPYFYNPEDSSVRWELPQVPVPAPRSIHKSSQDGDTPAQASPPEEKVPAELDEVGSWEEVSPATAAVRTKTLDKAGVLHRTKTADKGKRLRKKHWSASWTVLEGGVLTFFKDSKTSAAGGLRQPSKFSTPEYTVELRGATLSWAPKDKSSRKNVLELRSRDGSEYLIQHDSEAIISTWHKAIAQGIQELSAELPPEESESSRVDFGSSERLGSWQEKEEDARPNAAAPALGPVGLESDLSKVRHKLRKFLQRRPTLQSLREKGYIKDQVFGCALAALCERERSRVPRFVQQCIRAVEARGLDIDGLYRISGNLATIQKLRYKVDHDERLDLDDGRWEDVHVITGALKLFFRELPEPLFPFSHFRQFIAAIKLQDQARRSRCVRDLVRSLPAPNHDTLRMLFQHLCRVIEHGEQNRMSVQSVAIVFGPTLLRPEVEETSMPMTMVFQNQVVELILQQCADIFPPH
UniProt Q8N6T3, sequence (Q8N6T3 whole entry): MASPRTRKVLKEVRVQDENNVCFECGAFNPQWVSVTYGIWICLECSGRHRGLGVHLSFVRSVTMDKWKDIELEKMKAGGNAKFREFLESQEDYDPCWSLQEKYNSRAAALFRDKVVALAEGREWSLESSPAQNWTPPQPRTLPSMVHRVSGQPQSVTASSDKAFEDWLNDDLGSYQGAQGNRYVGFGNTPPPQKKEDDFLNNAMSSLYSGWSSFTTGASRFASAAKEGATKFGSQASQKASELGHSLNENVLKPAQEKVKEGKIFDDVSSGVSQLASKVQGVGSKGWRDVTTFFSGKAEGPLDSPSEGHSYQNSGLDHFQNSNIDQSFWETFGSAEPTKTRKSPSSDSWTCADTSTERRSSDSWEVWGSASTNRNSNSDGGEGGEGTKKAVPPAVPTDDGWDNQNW
UniProt Q9H993, sequence (Q9H993 whole entry): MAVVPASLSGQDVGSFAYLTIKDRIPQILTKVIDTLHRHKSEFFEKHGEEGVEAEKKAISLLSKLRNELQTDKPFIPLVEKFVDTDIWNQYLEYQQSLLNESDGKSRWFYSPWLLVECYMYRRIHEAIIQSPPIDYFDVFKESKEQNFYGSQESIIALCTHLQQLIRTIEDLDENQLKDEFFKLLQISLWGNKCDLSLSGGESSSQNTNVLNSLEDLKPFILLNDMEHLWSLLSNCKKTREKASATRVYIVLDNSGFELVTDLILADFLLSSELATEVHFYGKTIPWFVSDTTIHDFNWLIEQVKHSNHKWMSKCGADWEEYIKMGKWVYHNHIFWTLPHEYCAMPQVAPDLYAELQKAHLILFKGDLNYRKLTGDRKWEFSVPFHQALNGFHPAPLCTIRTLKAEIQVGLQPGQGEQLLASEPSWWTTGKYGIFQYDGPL
UniProt P18085, sequence (P18085 whole entry): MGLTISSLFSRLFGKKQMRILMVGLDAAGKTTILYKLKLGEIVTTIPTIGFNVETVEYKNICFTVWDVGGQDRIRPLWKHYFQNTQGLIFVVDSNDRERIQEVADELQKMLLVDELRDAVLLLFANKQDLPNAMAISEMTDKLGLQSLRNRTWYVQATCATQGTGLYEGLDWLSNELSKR

Row | Target | thermal stability z-score (lipoamide; [1]) | thermal stability z-score (lipoamide; arsenate co-treatment: none) | thermal stability z-score (potassium arsenate)
1 | APOBEC3C (UniProt Q9NRW3) | -0.418 | -0.453 | -0.53
2 | APOL2 (UniProt Q9BQE5) | -0.399 | 0.15 | 0.589
3 | APOO (UniProt Q9BUR5) | 0.803 | 0.64 | 0.23
4 | APOOL (UniProt Q6UXV4) | 0.908 | 0.782 | 0.748
5 | APP (UniProt P05067) | -1.82 | -1.75 | 0.137
6 | APPBP2 (UniProt Q92624) | -0.18 | 0.0712 | -0.115
7 | APPL1 (UniProt Q9UKG1) | -0.333 | 0.107 | 1.2
8 | APPL2 (UniProt Q8NEU8) | 0.0353 | -0.132 | -0.0173
9 | APRT (UniProt P07741) | 0.387 | 0.419 | 0.345
10 | APTX (UniProt Q7Z2E3) | 0.0235 | 0.0974 | -0.253
11 | AQR (UniProt O60306) | 0.37 | 0.297 | -0.643
12 | ARAF (UniProt P10398) | -0.299 | -0.252 | -0.275
13 | ARAP1 (UniProt Q96P48) | -0.133 | -0.0899 | -0.345
14 | ARCN1 (UniProt P48444) | 0.128 | -0.0303 | 0.383
15 | ARF4 (UniProt P18085) | -0.409 | -0.09 | -0.609
16 | ARF5 (UniProt P84085) | -0.258 | -0.517 | -0.187
17 | ARF6 (UniProt P62330) | 0.394 | 0.237 | 0.683
18 | ARFGAP1 (UniProt Q8N6T3) | -0.303 | 0.304 | 0.357
19 | ARFGAP2 (UniProt Q8N6H7) | -0.346 | -0.143 | 0.0541
20 | ARFGAP3 (UniProt Q9NP61) | 0.116 | 0.294 | 0.0267
21 | ARFGEF1 (UniProt Q9Y6D6) | -0.0608 | -0.273 | -0.154
22 | ARFGEF2 (UniProt Q9Y6D5) | -0.376 | -0.0733 | 0.0926
23 | ARFIP1 (UniProt P53367) | 0.444 | 0.144 | 0.0115
24 | ARFIP2 (UniProt P53365) | -0.0772 | -0.0355 | 0.108

Row | Target | thermal stability z-score (lipoamide; [1]) | thermal stability z-score (lipoamide; arsenate co-treatment: none) | thermal stability z-score (potassium arsenate)
25 | ARFRP1 (UniProt Q13795) | 0.241 | 0.279 | -0.148
26 | ARGLU1 (UniProt Q9NWB6) | 0.406 | 0.211 | -0.658
27 | ARHGAP1 (UniProt Q07960) | -1.02 | -0.692 | -0.115
28 | ARHGAP4 (UniProt P98171) | -0.00218 | 0.000585 | 0.0513
29 | ARHGAP5 (UniProt Q13017) | 0.182 | -0.703 | -0.265
30 | ARHGAP10 (UniProt A1A4S6) | 0.133 | 0.268 | 0.226
31 | ARHGAP12 (UniProt Q8IWW6) | -0.578 | -0.344 | 0.668
32 | ARHGAP17 (UniProt Q68EM7) | 0.0634 | 0.493 | 0.874
33 | ARHGAP18 (UniProt Q8N392) | 1.13 | 1.59 | 1.21
34 | ARHGAP21 (UniProt Q5T5U3) | -0.57 | -0.749 | -1.3
35 | ARHGAP27 (UniProt Q6ZUM4) | -0.103 | -0.156 | -0.309
36 | ARHGAP28 (UniProt Q9P2N2) | -0.114 | -0.103 | -0.0848
37 | ARHGAP29 (UniProt Q52LW3) | -0.215 | -0.998 | -1.28
38 | ARHGAP35 (UniProt Q9NRY4) | -0.512 | -0.145 | 0.128
39 | ARHGDIA (UniProt P52565) | 0.784 | 0.465 | 0.318
40 | ARHGDIB (UniProt P52566) | 0.0327 | -0.0579 | 0.0843
41 | ARHGEF1 (UniProt Q92888) | -0.381 | -0.242 | 0.0617
42 | ARHGEF2 (UniProt Q92974) | -0.182 | 0.0779 | 0.444
43 | ARHGEF5 (UniProt Q12774) | -0.685 | 0.596 | 0.214
44 | ARHGEF7 (UniProt Q14155) | -0.856 | -0.54 | -0.0377
45 | ARHGEF10 (UniProt O15013) | -0.746 | -0.324 | 0.964
46 | ARHGEF11 (UniProt O15085) | -0.0428 | 0.152 | 0.14
47 | ARHGEF12 (UniProt Q9NZN5) | -0.125 | -0.261 | 0.192
48 | ARHGEF16 (UniProt Q5VV41) | 0.251 | -0.0771 | -0.201

Row | Target | thermal stability z-score (lipoamide; [1]) | thermal stability z-score (lipoamide; arsenate co-treatment: none) | thermal stability z-score (potassium arsenate)
49 | ARHGEF18 (UniProt Q6ZSZ5) | -0.0633 | -0.00829 | -0.0508
50 | ARID1A (UniProt O14497) | 0.0489 | -0.0643 | -0.205
51 | ARID2 (UniProt Q68CP9) | 0.136 | 0.254 | -0.234
52 | ARID4B (UniProt Q4LE39) | 0.0389 | 0.0738 | -0.419
53 | ARIH1 (UniProt Q9Y4X5) | -0.0195 | -0.0439 | -0.568
54 | ARIH2 (UniProt O95376) | 0.203 | -0.216 | -0.521
55 | ARL1 (UniProt P40616) | -0.148 | -0.943 | 0.669
56 | ARL2 (UniProt P36404) | -0.405 | -0.0766 | 0.664
57 | ARL2BP (UniProt Q9Y2Y0) | -0.0213 | 0.0527 | -0.326
58 | ARL3 (UniProt P36405) | -0.325 | -0.435 | -0.424
59 | ARL6 (UniProt Q9H0F7) | 0.197 | 0.233 | 0.202
60 | ARL6IP4 (UniProt Q66PJ3) | 0.727 | -0.0769 | 0.572
61 | ARL6IP5 (UniProt O75915) | -0.0796 | 0.285 | -0.256
62 | ARL8A (UniProt Q96BM9) | 0.375 | 0.0879 | 0.218
63 | ARL8B (UniProt Q9NVJ2) | -0.122 | -0.507 | -0.267
64 | ARL13B (UniProt Q3SXY8) | -0.415 | -0.29 | -1.37
65 | ARL14EP (UniProt Q8N8R7) | -0.0926 | -0.15 | -0.3
66 | ARMC1 (UniProt Q9NVT9) | 0.616 | 0.111 | 0.476
67 | ARMC6 (UniProt Q6NXE6) | -0.546 | -0.743 | 1.37
68 | ARMC8 (UniProt Q8IUR7) | -0.0708 | -0.238 | -0.668
69 | ARMT1 (UniProt Q9H993) | 0.0878 | 0.255 | 0.195
70 | ARNT (UniProt P27540) | 0.605 | 0.794 | 0.561
71 | ARPC1A (UniProt Q92747) | -0.106 | 0.0846 | -0.466

— the supplement of paper PMC12463676, “Small-molecule dissolution of stress granules by redox modulation benefits ALS models” (Nature Chemical Biology, 2025)
